Measurements taken from US20190275022A1, “METHODS, COMPOSITIONS, AND COMPOUNDS FOR TREATMENT OF DERMATOLOGICAL AND OCULAR CONDITIONS” (Allergan, Inc., priority 2016, published 2019).
Read-outs that look alike come from different tables or passages of the source.

Assays:
human PDE4B2 = human PDE4B2 (Homo sapiens, UniProt Q07343); assay: Phosphodiesterase assay, recombinant human PDE4B2 ([3H]cAMP hydrolysis); type: biochemical
Method: A phosphodiesterase assay was performed using recombinant human PDE expressed in a baculoviral system.
The assay consisted of a two-step procedure. Tritium-labeled cyclic AMP was hydrolyzed to 5′-AMP by phosphodiesterase. The 5′-AMP was then further hydrolyzed to adenosine by nucleotidase in snake venom. An anion-exchange resin bound all charged nucleotides and left [^3H]adenosine as the only labeled compound to be counted by liquid scintillation.
All compounds were tested at a 10 μM starting concentration with a 1 in 3, 8 point IC50. […] The IC50 of each compound and the standard inhibitor (Rolipram) was determined. The standard inhibitor value was compared to historical assay data to ensure that it was within an acceptable range.

PMBC TNF = conditions: data from literature; read-out: PMBC TNF Inhib. IC50; cited from earlier work
[1] = tested on: Oxazolone (OXA) dermatitis in SKH1-E hairless mice; assay: Oxazolone-induced dermatitis model, topical or oral treatment, SCORAD and resolved lesions; type: in vivo; conditions: for day of statistically significant improvement in SCORAD clinical scores: topical, vs. vehicle
Method: Female SKH1-E hairless mice (Charles River) weighing approximately 25 g at 2-3 months of age were used in the following study. For model induction, the mice were sensitized on Day −7 (minus seven) by topical application of 50 μl of 5% Oxazolone (OXA) solubilized in ethanol on the hind flank. Dermatitis was elicited by repeated topical challenges with 50 μl of 0.1% Oxazolone every other day until the end of the study.
For administration of the test compounds, the test compounds were solubilized in a 70% ethanol/30% DMSO vehicle solution and kept at 4° C. Beginning on Day 0, the test compounds were administered twice daily (AM/PM) by topical application (50 μl volume) for 12 days. Betamethasone (0.12%) was used as a positive control and dosed once daily in the AM. Test article dosing and topical challenges were separated by at least 4 hours and all compounds were masked to investigators.
For clinical assessment, the degree of dermatitis was graded on a SCORAD (scoring atopic dermatitis) based scoring system of 0-3 (with 0=no symptoms, 1=Mild, 2=Moderate, 3=Severe) prior to challenge by a masked investigator.
(§1) For tissue collection, on the day of necropsy, animals were euthanized at 2 hours post final dose via CO2 inhalation with death verified by cervical dislocation. Whole blood was collected via cardiac puncture (˜250 μl) in EDTA/K^+ treated tubes for plasma analysis of drug concentrations. A rectangular strip of skin from the left side of treatment back area was collected for hematoxylin-eosin (H&E) stain. Prior to placing tissue in 10% formalin, the skin thickness was measured using a calibrated caliper (mm). Three 8 mm tissue punches were then collected from the right side of the treatment area and stored at −80° C. for cytokine protein (LUMINEX) or gene expression assays.

[2] = tested on: lipopolysaccharide (LPS)-induced ocular inflammation model; assay: LPS-induced ocular inflammation model, aqueous humor cells and protein, survival; type: in vivo; conditions: for % Efficacy, Cell % Inhibition / % Efficacy, Protein % Inhibition: aqueous humor
Method: Male Lewis rats, weighing about 250 to 270 grams, were purchased from Charles River and used for all studies. Lipopolysaccharide (LPS) was made fresh in sterile saline (1 mg/ml), kept on ice, and administered by footpad injection at a total dose of 100 μg (100 μl) per animal. Twenty-four hours later, at the time of maximal inflammation in this model, the rats were euthanized by CO2 inhalation. Aqueous humor was collected and analyzed for protein concentration and cell counts.
For the calculation of the percentage of cell inhibition, the number of cells in treatment group were divided by the average number of cells in vehicle group times 100. For the calculation of the percentage of protein inhibition, the amount protein in treatment group was divided by the average protein in the vehicle group times 100.
Aqueous humor was collected from both eyes by anterior chamber puncture, performed under an operating microscope, using a 30-gauge needle and 25 μl Hamilton syringe (Catalog number 1702). aqueous humor from both eyes was pooled and kept on ice until further analysis.
Protein determination was carried out using a standard Bradford method. Cell counting was done by using either a hemocytometer or an automated cell counter (BioRad TC10).

plaque psoriasis = assay: Example of treatment of plaque psoriasis (patient case); type: in vivo, human; conditions: topical up to three times a day; after 1 to 4 months
Description: A person presents with erythematous plaques covered with thick, silvery, shiny scales on the extensor surfaces of their elbows and knees. After a clinical evaluation, the patient is diagnosed with plaque psoriasis. The patient is prescribed a pharmaceutical composition containing an effective amount of the compound of Formula I with instructions to apply the composition topically to the plaques up to three times a day.

dry eye disease = assay: Example of treatment of dry eye disease (patient case); type: in vivo, human; conditions: eye drops once a day; after about 1 to 2 months
Description: A person presents with a history of having gritty, itchy and burning sensations in the both eyes which was previously generally diagnose as dry eye and has been treated with artificial tear drops applied topically to the eye as needed. The patient complains that the artificial tear solutions require too many applications per day. Medical evaluation of the patient results in the identification of the patient's dry eye disease as being dry eye disease where tear production is presumed to be suppressed due to ocular inflammation associated with the dry eye disease. The patient is prescribed eye drops containing an effective amount of the compound of Formula I with instructions to apply medication once a day.

[3] = Plasma drug concentration after topical dosing in the dermatitis model (LC-MS/MS); type: in vivo
Method: as §1
The whole-blood samples collected in Example 2 were analyzed for drug concentrations. In particular, plasma samples were extracted by protein precipitation with acetonitrile and analyzed for drug concentrations by the bioanalytical laboratory using liquid chromatography tandem mass spectrometry (LC-MS/MS). Propranolol (200 ng/mL) was used as an internal standard for the extraction procedure. Working standards were prepared by series dilution (0.5 ng/mL) into acetonitrile from a stock solution of 10 ug/mL. All samples were analyzed using the API 5000 LC-MS/MS system in 0.1% formic acid in water.

[4] = tested on: pruritus, atopic dermatitis; assay: Example of treatment of pruritus / atopic dermatitis (patient case); type: in vivo, human; conditions: topical cream once a day
Description: A person presents with a history of chronic relapsing atopic dermatitis (eczema), with severe itching, beginning. Their rash is characterized by red, itchy eruptions on cheeks and legs. Patient's parents stated that during a flare-up child is irritable at home and severe scratching disrupts sleep at night. Patient also feels very self-conscious of rash and is socially withdrawn at school during a flare-up. History of treatment have included lukewarm soaking baths and the use of over the counter emollients and creams. Topical calcineurin inhibitors were reported to exacerbate pruritus. The patient is prescribed a topical cream of the compound of Formula I with instructions to apply medication once day.

Oral bio-availability = conditions: in vivo
rosacea = assay: Example of treatment of rosacea (patient case); type: in vivo, human; conditions: topical one or twice a day; after about two days
Description: A person presents with visible facial erythema and edema with telangiectases and visible papules and pustules resembling acne. […] Upon clinical examination, the patient is diagnosed with rosacea in its inflammatory phase. The patient is prescribed a topical composition comprising an effective amount of the compound of Formula I and instructed to apply the composition to the affected areas one or twice a day.

[5] = 0.01-0.5 mg/kg subcutaneously, dose dependent
[6] = human PDE4B2, read-out: Enzymatic IC50

Sequence of human PDE4B2 (Q07343 1-564 isoform Q07343-2): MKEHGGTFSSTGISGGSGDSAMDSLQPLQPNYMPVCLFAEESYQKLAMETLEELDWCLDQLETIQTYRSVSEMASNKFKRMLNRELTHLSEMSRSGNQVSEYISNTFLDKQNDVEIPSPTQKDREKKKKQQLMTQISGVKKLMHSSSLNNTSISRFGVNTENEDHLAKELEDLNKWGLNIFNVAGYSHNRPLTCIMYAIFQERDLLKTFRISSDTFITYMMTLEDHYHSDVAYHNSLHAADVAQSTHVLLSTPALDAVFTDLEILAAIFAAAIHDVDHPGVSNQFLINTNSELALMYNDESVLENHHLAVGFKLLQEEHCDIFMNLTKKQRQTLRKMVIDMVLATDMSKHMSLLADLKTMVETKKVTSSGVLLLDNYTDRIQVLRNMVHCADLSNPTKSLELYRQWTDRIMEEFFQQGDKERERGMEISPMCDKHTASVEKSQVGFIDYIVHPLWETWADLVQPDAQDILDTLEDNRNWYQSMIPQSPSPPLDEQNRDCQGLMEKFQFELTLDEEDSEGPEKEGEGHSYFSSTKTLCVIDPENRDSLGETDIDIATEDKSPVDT

In the case of `N#Cc1ccc(Oc2ccc3c(c2)COB3O)cc1` [AN-2728], the IC50 (human PDE4B2) is given as 26 nM, the IC50 (PMBC TNF) is given as 170 nM and the “day of statistically significant improvement in SCORAD clinical scores” value [1] is given as no less than 9 days.
In the case of `CCOc1cc([C@@H](CS(C)(=O)=O)N2C(=O)c3cccc(NC(C)=O)c3C2=O)ccc1OC` [apremilast], the IC50 (PMBC TNF) is listed as 110 nM and the “animals with resolved lesions” value ([1]; topically applied at 1%) is listed as “approximately 40%”.
For `O=C(Nc1c(Cl)cncc1Cl)c1ccc(OC(F)F)c(OCC2CC2)c1` [drawing 21], the “% Survival” value ([2]; systemic dose 0.3 mg/kg) was 100%, the “% Efficacy, Cell % Inhibition” value ([2]; systemic dose 0.3 mg/kg) was 97% and the “% Efficacy, Protein % Inhibition” value ([2]; systemic dose 0.3 mg/kg) was 77%.
For `O=C(Nc1c(Cl)cncc1Cl)c1ccc(OC(F)F)c(OCC2CC2)c1` [roflumilast], the IC50 (PMBC TNF) is given as 1.8 nM.
In the case of `CS(=O)(=O)Nc1ccc(C(=O)O[C@@H](Cc2c(Cl)c[n+]([O-])cc2Cl)c2ccc(OC(F)F)c(OCC3CC3)c2)cc1OCC1CC1` [Compound A], the psoriatic plaques (plaque psoriasis) is reported as “almost completely disappeared”, the “percentage of cells in the aqueous humor” value [2, 5] is reported as “significantly reduced” and the “percentage of protein in the aqueous humor” value [2, 5] is reported as “significantly reduced”. For the same molecule, the “% Survival” value ([2]; systemic dose 0.1 mg/kg) was 100%, the “% Efficacy, Cell % Inhibition” value ([2]; systemic dose 0.1 mg/kg) was 95% and the “% Efficacy, Protein % Inhibition” value ([2]; systemic dose 0.1 mg/kg) was 67%. For the same molecule, the “gritty, itchy and burning sensations” value (dry eye disease) was “significant reduction”, the tear production (dry eye disease) was “enough of an increase in tear production that the artificial tear drops are needed much less frequently” and the IC50 (human PDE4B2; [6]) was 0.04 nM. For the same molecule, the IC50 (PMBC TNF) was 0.03 nM, the concentration at 2 h ([3]; mouse, in vivo, delivered topically to the skin, 2 hours post final dose, read-out: plasma concentrations) was less than 5 ng/mL and the plasma concentrations ([3]; topical 0.01%, 8 of the 10 animals) was “below quantifiable limits”. The “redness and eruptions on the skin” value ([4]; after approximately 3 weeks) was “significant reduction”, the scratching ([4]; within the first week) was “noticeable reduction in scratching” and the oral bio-availability (Oral bio-availability) was “does not show any oral bio-availability”. For the same molecule, the “selectivity for PDE4 versus other PDEs” value (PDE4 versus other PDEs) was “greater than 50 fold”, the rosacea affected areas (rosacea) was “noticeable clearing of the affected areas” and the “reduction of SCORAD clinical scores earlier than benchmark AN-2728” value ([1]; topical 0.01-1% w/v, compared to AN-2728) was 4 days. For the same molecule, the “day of statistically significant improvement in SCORAD clinical scores” value [1] was no more than 5 days, the “animals with resolved lesions” value ([1]; topically applied at 0.01%) was “approximately 60%” and the “animals with resolved lesions” value ([1]; topically applied at 1%) was “approximately 90%”.
For `CCCNC(=O)COc1c(C(=O)Cc2c(Cl)cncc2Cl)ccc(OC)c1OC`, the “% Survival” value ([2]; systemic dose 1.0 mg/kg) was 100%, the “% Efficacy, Cell % Inhibition” value ([2]; systemic dose 1.0 mg/kg) was 67% and the “% Efficacy, Protein % Inhibition” value ([2]; systemic dose 1.0 mg/kg) was 29%.
For `N#Cc1ccc(Oc2ccc3c(c2)COB3O)cc1` [drawing 23], the “% Survival” value ([2]; systemic dose 1.0 mg/kg) was 100%, the “% Efficacy, Cell % Inhibition” value ([2]; systemic dose 1.0 mg/kg) was 51% and the “% Efficacy, Protein % Inhibition” value ([2]; systemic dose 1.0 mg/kg) was 13%.
In the case of `CCOc1cc([C@@H](CS(C)(=O)=O)N2C(=O)c3cccc(NC(C)=O)c3C2=O)ccc1OC` [drawing 22], the “% Survival” value ([2]; systemic dose 10.0 mg/kg) is reported as 100%, the “% Efficacy, Cell % Inhibition” value ([2]; systemic dose 10.0 mg/kg) is reported as 94% and the “% Efficacy, Protein % Inhibition” value ([2]; systemic dose 10.0 mg/kg) is reported as 58%.
In the case of `COc1cccc(Nc2c(C(N)=O)cnc3c(C)cc(S(=O)(=O)c4cccc(C(=O)N(C)C)c4)cc23)c1` [GSK-256066], the “safety in the ocular inflammation model” value ([2]; rat, in vivo) is reported as “resulted in death of the animals”, the “% Survival” value ([2]; systemic dose 1.0 mg/kg) is reported as 0% and the IC50 (human PDE4B2; [6]) is reported as 0.007 nM. For the same molecule, the IC50 (PMBC TNF) was 0.01 nM.
